The values that follow come from the supplement of paper PMC10307832.

What all share (assay): relative viability (nuclei count vs DMSO), 5 days (fraction); higher = more cells survive
Compound in test [1]: COc1cc(-c2nn([C@H]3CC[C@H](N4CCN(C(C)=O)CC4)CC3)c3ncnc(N)c23)ccc1NC(=O)c1cc2ccccc2n1C + COc1cc2c(Oc3ccc(NC(=O)C4(C(=O)Nc5ccc(F)cc5)CC4)cc3F)ccnc2cc1OCCCN1CCOCC1 [Foretinib] (partner 0.25 µM)
The method in brief: (§1)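 Each reported value is a median over duplicate plates. It expresses relative viability: treated-well nuclei count divided by vehicle-well nuclei count. Lung cancer cell lines in 1536-well plates were dosed by pin tool a day after seeding, alone with one drug or with a fixed anchor-drug dose plus five library-drug doses (not always all listed) in √10 steps, and nuclei were counted after 5 days.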

Compound in the test “Midostaurin + Phenformin”: CO[C@@H]1[C@H](N(C)C(=O)c2ccccc2)C[C@H]2O[C@]1(C)n1c3ccccc3c3c4c(c5c6ccccc6n2c5c31)C(=O)NC4 [Midostaurin] + N=C(N)NC(=N)NCCc1ccccc1 [Phenformin] (partner 250 µM)
The method in brief:
as §1

Compound in the test “Midostaurin + OSI-027”: CO[C@@H]1[C@H](N(C)C(=O)c2ccccc2)C[C@H]2O[C@]1(C)n1c3ccccc3c3c4c(c5c6ccccc6n2c5c31)C(=O)NC4 [Midostaurin] + COc1cccc2cc(-c3nc([C@H]4CC[C@H](C(=O)O)CC4)n4ncnc(N)c34)[nH]c12 [OSI-027] (partner 0.5 µM)
An outline of the steps: as §1

Compound in the test “Midostaurin + Bortezomib”: CO[C@@H]1[C@H](N(C)C(=O)c2ccccc2)C[C@H]2O[C@]1(C)n1c3ccccc3c3c4c(c5c6ccccc6n2c5c31)C(=O)NC4 [Midostaurin] + CC(C)C[C@H](NC(=O)[C@H](Cc1ccccc1)NC(=O)c1cnccn1)B(O)O [Bortezomib] (partner 0.002 µM)
The method in brief:
as §1

Compound in the test “Midostaurin + Linsitinib”: CO[C@@H]1[C@H](N(C)C(=O)c2ccccc2)C[C@H]2O[C@]1(C)n1c3ccccc3c3c4c(c5c6ccccc6n2c5c31)C(=O)NC4 [Midostaurin] + C[C@]1(O)C[C@@H](c2nc(-c3ccc4ccc(-c5ccccc5)nc4c3)c3c(N)nccn32)C1 [Linsitinib] (partner 1 µM)
An outline of the steps: as §1

Regarding UMC-11, the relative viability in test [1] (first compound 0.0128 µM) was 0.967; in test [1] (first compound 0.04048 µM), 1.07; in test [1] (first compound 0.128 µM) it was 0.943; in test [1] (first compound 1.28 µM), 0.806; with Midostaurin + Phenformin (first compound 0.01 µM), 0.3; with Midostaurin + Phenformin (first compound 0.03162 µM) it was 0.328. The relative viability in the test with Midostaurin + Phenformin (first compound 0.1 µM) came out at 0.32; with Midostaurin + Phenformin (first compound 0.3162 µM), 0.281; with Midostaurin + OSI-027 (first compound 0.01 µM) it was 0.473; in the test with Midostaurin + OSI-027 (first compound 0.03162 µM), 0.463; with Midostaurin + OSI-027 (first compound 0.1 µM), 0.536; with Midostaurin + OSI-027 (first compound 0.3162 µM), 0.293. Further, the relative viability came to 0.734 with Midostaurin + Bortezomib (first compound 0.01 µM); 0.591 with Midostaurin + Bortezomib (first compound 0.03162 µM); 0.508 with Midostaurin + Bortezomib (first compound 0.1 µM); 0.34 with Midostaurin + Bortezomib (first compound 0.3162 µM); 0.984 with Midostaurin + Linsitinib (first compound 0.01 µM); 0.998 with Midostaurin + Linsitinib (first compound 0.03162 µM). Besides, the results for the relative viability with Midostaurin + Linsitinib (first compound 0.1 µM) and with Midostaurin + Linsitinib (first compound 0.3162 µM) were 0.95 and 0.586, respectively.
